Values of other authors as cited in PubChem BioAssay AID1259409 (Chemical Carcinogenesis Research Information System (CCRIS), 2018).

System: rodent chemically induced tumor inhibition, incidence and multiplicity
Test: CCRIS tumor inhibitor studies

Compound: CC(=O)OC/C=C(C)/C=C/C=C(C)/C=C/C1=C(C)CCCC1(C)C
- tumour outcome (control, treated, inhibition, significance) (Carcinogen: 1,2-DIMETHYLHYDRAZINE, 540-73-8, Dose [Inhibitor]: 0.8 MMOL/KG DIET DAILY STARTING 12 D AFTER CARCINOGEN TREATMENT THROUGH ABOUT 8 MO AFTER CARCINOGEN DOSE (STUDY DURATION, Route [Inhibitor]: ORAL, Species: RAT, Strain/Sex: F344/MALE, Target Tissue: Type of Lesion: COLON: ADENOCARCINOMA, Dose [Carcinogen]: 150 MG/KG BW ONCE, Promoter: NONE USED): 10/39 (26%), 7/30 (23%), 12%, not significant
- tumour outcome (control, treated, inhibition, significance) (Carcinogen: 1,2-DIMETHYLHYDRAZINE, 540-73-8, Dose [Inhibitor]: 0.8 MMOL/KG DIET DAILY STARTING 12 D AFTER CARCINOGEN TREATMENT THROUGH ABOUT 8 MO AFTER CARCINOGEN DOSE (STUDY DURATION, Route [Inhibitor]: ORAL, Species: RAT, Strain/Sex: F344/MALE, Target Tissue: Type of Lesion: COLON: ADENOMA, Dose [Carcinogen]: 150 MG/KG BW ONCE, Promoter: NONE USED): 23/39 (59%), 9/30 (30%), 49%, p<0.05
- tumour outcome (control, treated, inhibition, significance) (Carcinogen: 7,12-DIMETHYLBENZ[A]ANTHRACENE, 57-97-6, Dose [Inhibitor]: 0, 328 MG/KG OF DIET FROM DAY 34 TO 54 OF AGE (STUDY DURATION: 200 D), Route [Inhibitor]: ORAL, Species: RAT, Strain/Sex: SPRAGUE-DAWLEY/FEMALE, Target Tissue: Type of Lesion: MAMMARY GLAND: ADENOCARCINOMA, Dose [Carcinogen]: 15 MG/RAT ONCE AT 55 D OF AGE, Promoter: NONE USED): 93%, 97%, -4%, not calculated
- tumour outcome (control, treated, inhibition, significance) (Carcinogen: 7,12-DIMETHYLBENZ[A]ANTHRACENE, 57-97-6, Dose [Inhibitor]: 0, 328 MG/KG OF DIET FROM DAY 34 TO 54 OF AGE (STUDY DURATION: 200 D), Route [Inhibitor]: ORAL, Species: RAT, Strain/Sex: SPRAGUE-DAWLEY/FEMALE, Target Tissue: Type of Lesion: MAMMARY GLAND: BENIGN TUMORS, Dose [Carcinogen]: 15 MG/RAT ONCE AT 55 D OF AGE, Promoter: NONE USED): 28%, 40%, -43%, not calculated
- tumour outcome (control, treated, inhibition, significance) (Carcinogen: 7,12-DIMETHYLBENZ[A]ANTHRACENE, 57-97-6, Dose [Inhibitor]: 0, 350 MG/KG 1/WK FROM 40-90 D OF AGE THEN 0, 250 MG/KG 1/WK FROM 90-180 D OF AGE AND 0, 200 MG/KG 1/WK FROM 180-240 D O, Dose [Inhibitor]: 0, 350 MG/KG 1/WK FROM 40-90 D OF AGE THEN 0, 250 MG/KG 1/WK FROM 90-180 D OF AGE AND 0, 200 MG/KG 1/WK FROM 180-240 D O, Route [Inhibitor]: INTRAPERITONEAL, Species: RAT, Strain/Sex: SPRAGUE DAWLEY/FEMALE, Target Tissue: Type of Lesion: MAMMARY GLAND: ADENOCARCINOMA, FIBROADENOMA, Dose [Carcinogen]: 5 MG IN 0.2 ML SESAME OIL 1/2 D FOR 12 D BEGINNING AT 50 D OF AGE, Promoter: NONE USED): 100%, 48%, 52%, p<0.001
- tumour outcome (control, treated, inhibition, significance) (Carcinogen: 7,12-DIMETHYLBENZ[A]ANTHRACENE, 57-97-6, Dose [Inhibitor]: 0.2 MILLIMOLAR IN DIET DAILY FOR 27 WK STARTING 3 D AFTER LAST CARCINOGEN DOSE AND CONTINUING THE END OF THE STUDY (STUD, Route [Inhibitor]: ORAL, Species: MOUSE, Strain/Sex: BDF/FEMALE, Target Tissue: Type of Lesion: MAMMARY GLAND: ADENOCARCINOMA, Dose [Carcinogen]: 1 MG/WK FOR 6 WK, Promoter: NONE USED): 22/75 (29%), 31/75 (41%), -41%, not significant
- tumour outcome (control, treated, inhibition, significance) (Carcinogen: 7,12-DIMETHYLBENZ[A]ANTHRACENE, 57-97-6, Dose [Inhibitor]: 0.2 MILLIMOLAR IN DIET DAILY FOR 27 WK STARTING 3 D AFTER LAST CARCINOGEN DOSE AND CONTINUING THROUGH THE END OF THE STU, Route [Inhibitor]: ORAL, Species: MOUSE, Strain/Sex: BDF/FEMALE, Target Tissue: Type of Lesion: MAMMARY GLAND: ADENOCANTHOMA, Dose [Carcinogen]: 1 MG/WK FOR 6 WK, Promoter: NONE USED): 20/75 (27%), 19/75 (25%), 7%, not significant
- tumour outcome (control, treated, inhibition, significance) (Carcinogen: 7,12-DIMETHYLBENZ[A]ANTHRACENE, 57-97-6, Dose [Inhibitor]: 68 MG/KG DIET DAILY FOR 11 WK STARTING 3 D AFTER CARCINOGEN TREATMENT (STUDY DURATION: 11 WK), Route [Inhibitor]: ORAL, Species: RAT, Strain/Sex: SPRAGUE-DAWLEY/FEMALE, Target Tissue: Type of Lesion: MAMMARY GLAND: CARCINOMA, Dose [Carcinogen]: 20 MG/ML SESAME OIL ONCE AT 53 D OF AGE, Promoter: NONE USED): 100%, 92%, 8%, not significant
- tumour outcome (control, treated, inhibition, significance) (Carcinogen: 7,12-DIMETHYLBENZ[A]ANTHRACENE, 57-97-6, Dose [Inhibitor]: 204 MG/KG DIET DAILY FOR 12 WK STARTING 3 D AFTER CARCINOGEN TREATMENT (STUDY DURATION: 12 WK), Route [Inhibitor]: ORAL, Species: RAT, Strain/Sex: SPRAGUE-DAWLEY/FEMALE, Target Tissue: Type of Lesion: MAMMARY GLAND: CARCINOMA, Dose [Carcinogen]: 10 MG/ML SESAME OIL ONCE AT 53 D OF AGE, Promoter: NONE USED): 90%, 74%, 18%, not significant
- tumour outcome (control, treated, inhibition, significance) (Carcinogen: 7,12-DIMETHYLBENZ[A]ANTHRACENE, 57-97-6, Dose [Inhibitor]: 250 MG/KG DIET DAILY FOR 28 WK STARTING 2 WK BEFORE START OF CARCINOGEN TREATMENT AND CONTINUING FOR DURATION OF STUDY (, Route [Inhibitor]: ORAL, Species: RAT, Strain/Sex: SPRAGUE-DAWLEY/FEMALE, Target Tissue: Type of Lesion: MAMMARY GLAND: TUMOR, Dose [Carcinogen]: 5 MG IN CORN OIL 1/WK FOR 3 WK, Promoter: NONE USED): 90%, 47%, 48%, p<0.001
- tumour outcome (control, treated, inhibition, significance) (Carcinogen: 7,12-DIMETHYLBENZ[A]ANTHRACENE, 57-97-6, Dose [Inhibitor]: 328 MG/KG DIET DAILY FOR 20 WK STARTING 3 D AFTER CARCINOGEN TREATMENT (STUDY DURATION: 26 WK), Route [Inhibitor]: ORAL, Species: RAT, Strain/Sex: SPRAGUE-DAWLEY/FEMALE, Target Tissue: Type of Lesion: MAMMARY GLAND: CARCINOMA, Dose [Carcinogen]: 5 MG/ML SESAME OIL ONCE AT 53 D OF AGE, Promoter: NONE USED): 85%, 60%, 29%, not significant
- tumour outcome (control, treated, inhibition, significance) (Carcinogen: DIMETHYLBENZ[A]ANTHRACENE, 57-97-6, Dose [Inhibitor]: 0, 328 MG/KG DIET IN VEHICLE 2 MO PRIOR TO CARCINOGEN DOSE AND CONTINUED UNTIL CARCINOGEN ADMINISTRATION (STUDY DURATION, Route [Inhibitor]: ORAL, Species: RAT, Strain/Sex: CD-1/FEMALE, Target Tissue: Type of Lesion: MAMMARY GLAND: ADENOCARCINOMA, Dose [Carcinogen]: 20 MG IN 1 ML SESAME OIL ONCE, Promoter: NONE USED): 63%, 57%, 10%, not calculated
- tumour outcome (control, treated, inhibition, significance) (Carcinogen: DIMETHYLBENZ[A]ANTHRACENE, 57-97-6, Dose [Inhibitor]: 0, 328 MG/KG DIET IN VEHICLE 2 MO PRIOR TO CARCINOGEN DOSE AND CONTINUED UNTIL CARCINOGEN ADMINISTRATION (STUDY DURATION, Route [Inhibitor]: ORAL, Species: RAT, Strain/Sex: CD-1/FEMALE, Target Tissue: Type of Lesion: MAMMARY GLAND: BENIGN TUMOR, Dose [Carcinogen]: 20 MG IN 1 ML SESAME OIL ONCE, Promoter: NONE USED): 17%, 50%, -194%, p<0.05
- tumour outcome (control, treated, inhibition, significance) (Carcinogen: ETHYLNITROSOUREA, 759-73-9, Dose [Inhibitor]: 0, 300000 IU KG IN 1:20 (VOLUME: VOLUME) SUNFLOWER OIL IN DIET 5 D/WK FOR LIFE (STUDY DURATION: 319 D), Route [Inhibitor]: ORAL, Species: RAT, Strain/Sex: ALBINO/MALE,FEMALE, Target Tissue: Type of Lesion: NERVOUS SYSTEM: SCHWANNOMA, Dose [Carcinogen]: 75 MG/KG IN SALINE BY INTRAVENOUS INJECTION ONCE 21 D AFTER CONCEPTION): 37/89 (42%), 14/50 (28%), 33%, not calculated
- tumour outcome (control, treated, inhibition, significance) (Carcinogen: ETHYLNITROSOUREA, 759-73-9, Dose [Inhibitor]: 0, 300000 IU/KG IN 1:20 (VOLUME: VOLUME) SUNFLOWER OIL IN DIET 5 D/WK FOR LIFE (STUDY DURATION: 319 D), Route [Inhibitor]: ORAL, Species: RAT, Strain/Sex: ALBINO/MALE,FEMALE, Target Tissue: Type of Lesion: BRAIN: GLIOMA OR ASTROCYTOMA, Dose [Carcinogen]: 75 MG/KG IN SALINE BY INTRAVENOUS INJECTION ONCE 21 D AFTER CONCEPTION): 54/89 (61%), 38/50 (76%), -25%, not calculated
- tumour outcome (control, treated, inhibition, significance) (Carcinogen: ETHYLNITROSOUREA, 759-73-9, Dose [Inhibitor]: 0, 300000 IU/KG IN 1:20 (VOLUME: VOLUME) SUNFLOWER OIL IN DIET 5 D/WK FOR LIFE (STUDY DURATION: 319 D), Route [Inhibitor]: ORAL, Species: RAT, Strain/Sex: ALBINO/MALE,FEMALE, Target Tissue: Type of Lesion: KIDNEY: MESENCHYMAL TUMOR OR ADENOCARCINOMA, Dose [Carcinogen]: 75 MG/KG IN SALINE BY INTRAVENOUS INJECTION ONCE 21 D AFTER CONCEPTION): 33/89 (37%), 14/50 (28%), 24%, not calculated
- tumour outcome (control, treated, inhibition, significance) (Carcinogen: ETHYLNITROSOUREA, 759-73-9, Dose [Inhibitor]: 0, 300000 IU/KG IN 1:20 (VOLUME: VOLUME) SUNFLOWER OIL IN DIET 5 D/WK FOR LIFE (STUDY DURATION: 319 D), Route [Inhibitor]: ORAL, Species: RAT, Strain/Sex: ALBINO/MALE,FEMALE, Target Tissue: Type of Lesion: SPINAL CORD: TUMOR, Dose [Carcinogen]: 75 MG/KG IN SALINE BY INTRAVENOUS INJECTION ONCE 21 D AFTER CONCEPTION): 55/89 (62%), 26/50 (52%), 16%, not calculated
- tumour outcome (control, treated, inhibition, significance) (Carcinogen: METHYLNITROSOUREA, 684-93-5, Dose [Inhibitor]: 0, 328 MG/KG DIET IN VEHICLE 2 MO PRIOR TO CARCINOGEN DOSE AND CONTINUED UNTIL CARCINOGEN ADMINISTRATION (STUDY DURATION, Route [Inhibitor]: ORAL, Species: RAT, Strain/Sex: CD-1/FEMALE, Target Tissue: Type of Lesion: MAMMARY GLAND: ADENOCARCINOMA, Dose [Carcinogen]: 50 MG/KG BW ONCE, Promoter: NONE USED): 57%, 72%), -26%, not calculated
- tumour outcome (control, treated, inhibition, significance) (Carcinogen: METHYLNITROSOUREA, 684-93-5, Dose [Inhibitor]: 0, 328 MG/KG DIET IN VEHICLE 2 MO PRIOR TO CARCINOGEN DOSE AND CONTINUED UNTIL CARCINOGEN ADMINISTRATION (STUDY DURATION, Route [Inhibitor]: ORAL, Species: RAT, Strain/Sex: CD-1/FEMALE, Target Tissue: Type of Lesion: MAMMARY GLAND: BENIGN TUMOR, Dose [Carcinogen]: 50 MG/KG BW ONCE, Promoter: NONE USED): 10%, 21%, -110%, not calculated
